In PubChem BioAssay (NCI):
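A five-concentration, 48-hour dose response in 96-well plates underlies each endpoint, interpolated linearly between surrounding concentrations. TGI: concentration producing complete growth inhibition.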

Experiments:
Test in all cases: growth of human tumour cells (NCI), 48 h
[1] = test system: IGROV1 ovarian
[2] = test system: SK-OV-3 ovarian
[3] = test system: 786-0 renal
[4] = test system: LOX IMVI melanoma
[5] = test system: RPMI-8226 leukemia
[6] = test system: PC-3 prostate
[7] = test system: SK-MEL-5 melanoma
[8] = test system: OVCAR-5 ovarian
[9] = test system: MALME-3M melanoma
[10] = test system: T-47D breast
[11] = test system: OVCAR-3 ovarian
[12] = test system: CCRF-CEM leukemia
[13] = test system: SF-295 CNS
[14] = test system: NCI-H522 lung
[15] = test system: EKVX NSCLC
[16] = test system: A549 NSCLC
[17] = test system: SN12C renal
[18] = test system: M14 melanoma
[19] = test system: MOLT-4 leukemia
[20] = test system: MDA-N
[21] = test system: MCF7 breast
[22] = test system: OVCAR-4 ovarian
[23] = test system: CAKI-1 renal
[24] = test system: NCI-H226 lung
[25] = test system: SK-MEL-28 melanoma
[26] = test system: HT29 colon
[27] = test system: KM12 colon
[28] = test system: TK-10 renal
[29] = test system: NCI/ADR-RES ovarian
[30] = test system: SF-539 CNS
[31] = test system: NCI-H460 lung
[32] = test system: SNB-75 CNS
[33] = test system: MDA-MB-231 breast
[34] = test system: SK-MEL-2 melanoma
[35] = test system: ACHN renal
[36] = test system: HCC-2998 colon
[37] = test system: K-562 leukemia
[38] = test system: MDA-MB-435
[39] = test system: UACC-62 melanoma
[40] = test system: SF-268 CNS
[41] = test system: DU-145 prostate
[42] = test system: HOP-62 NSCLC
[43] = test system: SNB-19 CNS
[44] = test system: RXF 393 renal
[45] = test system: HCT-15 colon
[46] = test system: UO-31 renal
[47] = test system: HCT-116 colon
[48] = test system: HS 578T breast
[49] = test system: UACC-257 melanoma
[50] = test system: SW-620 colon
[51] = test system: OVCAR-8 ovarian
[52] = test system: A498 renal
[53] = test system: COLO 205 colon
[54] = test system: U251 CNS
[55] = test system: BT-549 breast
[56] = test system: SR leukemia
[57] = test system: HL-60(TB) leukemia
[58] = test system: NCI-H23 lung
[59] = test system: HOP-92 NSCLC

Compound: CSc1nc2c(N)ncnc2n1C
- TGI [1]: > 100 µM
- TGI [2]: > 100 µM
- TGI [3]: > 100 µM
- TGI [4]: > 100 µM
- TGI [5]: > 100 µM
- TGI [6]: > 100 µM
- TGI [7]: > 100 µM
- TGI [8]: > 100 µM
- TGI [9]: > 100 µM
- TGI [10]: > 100 µM
- TGI [11]: > 100 µM
- TGI [12]: > 100 µM
- TGI [13]: > 100 µM
- TGI [14]: > 100 µM
- TGI [15]: > 100 µM
- TGI [16]: > 100 µM
- TGI [17]: > 100 µM
- TGI [18]: > 100 µM
- TGI [19]: > 100 µM
- TGI [20]: > 100 µM
- TGI [21]: > 100 µM
- TGI [22]: > 100 µM
- TGI [23]: > 100 µM
- TGI [24]: > 100 µM
- TGI [25]: > 100 µM
- TGI [26]: > 100 µM
- TGI [27]: > 100 µM
- TGI [28]: > 100 µM
- TGI [29]: > 100 µM
- TGI [30]: > 100 µM
- TGI [31]: > 100 µM
- TGI [32]: > 100 µM
- TGI [33]: > 100 µM
- TGI [34]: > 100 µM
- TGI [35]: > 100 µM
- TGI [36]: > 100 µM
- TGI [37]: > 100 µM
- TGI [38]: > 100 µM
- TGI [39]: > 100 µM
- TGI [40]: > 100 µM
- TGI [41]: > 100 µM
- TGI [42]: > 100 µM
- TGI [43]: > 100 µM
- TGI [44]: > 100 µM
- TGI [45]: > 100 µM
- TGI [46]: > 100 µM
- TGI [47]: > 100 µM
- TGI [48]: > 100 µM
- TGI [49]: > 100 µM
- TGI [50]: > 100 µM
- TGI [51]: > 100 µM
- TGI [52]: > 100 µM
- TGI [53]: > 100 µM
- TGI [54]: > 100 µM

Compound: Nc1nc(NNc2ccc(Cl)c(Cl)c2)cc(=O)[nH]1
- TGI [1]: > 100 µM
- TGI [3]: 67.5 µM
- TGI [4]: 33.1 µM
- TGI [5]: > 100 µM
- TGI [6]: > 100 µM
- TGI [7]: > 100 µM
- TGI [55]: 82.5 µM
- TGI [8]: > 100 µM
- TGI [9]: > 100 µM
- TGI [11]: 59.5 µM
- TGI [12]: > 100 µM
- TGI [13]: > 100 µM
- TGI [56]: > 100 µM
- TGI [15]: > 100 µM
- TGI [16]: > 100 µM
- TGI [17]: > 100 µM
- TGI [18]: > 100 µM
- TGI [19]: 90.3 µM
- TGI [20]: > 100 µM
- TGI [21]: 72.5 µM
- TGI [22]: > 100 µM
- TGI [24]: > 100 µM
- TGI [25]: > 100 µM
- TGI [26]: > 100 µM
- TGI [27]: > 100 µM
- TGI [28]: > 100 µM
- TGI [29]: > 100 µM
- TGI [30]: > 100 µM
- TGI [31]: > 100 µM
- TGI [33]: > 100 µM
- TGI [57]: 64.4 µM
- TGI [35]: > 100 µM
- TGI [36]: 44.7 µM
- TGI [37]: 54.7 µM
- TGI [58]: > 100 µM
- TGI [38]: 74.1 µM
- TGI [40]: > 100 µM
- TGI [59]: 79.8 µM
- TGI [41]: > 100 µM
- TGI [42]: > 100 µM
- TGI [43]: > 100 µM
- TGI [44]: 67.5 µM
- TGI [45]: 58.7 µM
- TGI [46]: > 100 µM
- TGI [47]: > 100 µM
- TGI [48]: > 100 µM
- TGI [49]: > 100 µM
- TGI [50]: 61.1 µM
- TGI [51]: > 100 µM
- TGI [52]: > 100 µM
- TGI [53]: 61.1 µM
- TGI [54]: 68.3 µM
